{"source": "patent US9192554B2", "about": "“Use of chicoric acid and lactic bacterium in food supplement for regulating skin pigmentation” (Nestec S.A., priority 2010, dated 2015)", "system": "B16 murine melanocytes", "test": "Production of melanin by B16 murine melanocyte cell line", "assay_type": "cell-based", "details": "72 hours, Kojic acid at 400 μg/mL", "procedure": "In order to evaluate the potential beneficial effect of ingredients towards skin de- or pro-pigmentation we used 2D culture of murine melanocytes (B16) and we performed 2 tests: 1-assessment of melanin production and 2-assessment of tyrosinase production. 1. The Cell Culture Conditions. • B16 cells were cultured in DMEM 1 g/L glucose without phenol red supplemented with 10% foetal calf serum, in a humidified chamber at 37° C. and containing 5% CO2. 2. The Production of Melanin by B16 Murine Melanocyte Cell Line. • Cells were incubated with the selected ingredients or the test references (Kojic acid at 400 μg/mL) for 72 hours, in the presence or absence of NDP-MSH an analog of MSH. The total quantity of melanin (extracellular and intracellular) was evaluated by measurement of the optical density at 405 nm of each sample against melanin standards in presence or in absence of NDP-MSH. Chicoric acid has been pre-treated with La-1 [(spray dried culture Lactobacillus Johnsonii CNCM I-1225, 1.19E10 cfu/g) for 24 hours in a thermomixer at 40° C., under shaking conditions. After incubation, samples have been centrifuged 5 minutes at 3000 g. After this treatment the probiotic as such is not present anymore in the sample however the presence of its metabolites can't be excluded.", "data": [{"smiles": "O=c1cc(CO)occ1O", "note": "[Kojic acid]", "values": [{"measurement": "Melanin content (effect in words)", "result": "decrease in melanin content"}]}]}
